# According to PubChem BioAssay (NCI):
#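 In this assay, cells in 96-well plates receive the compound at five concentrations for 48 hours. Endpoints are linearly interpolated between the surrounding concentrations. TGI denotes the concentration required for complete inhibition of growth.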
# Legend:
# Test in all cases: inhibition of tumour cell growth, NCI panel, 48 h
# [1] = test system: 786-0 renal
# [2] = test system: A498 renal
# [3] = test system: A549 NSCLC
# [4] = test system: ACHN renal
# [5] = test system: BT-549 breast
# [6] = test system: CAKI-1 renal
# [7] = test system: CCRF-CEM leukemia
# [8] = test system: COLO 205 colon
# [9] = test system: DLD-1 colon
# [10] = test system: DMS 114 small cell lung
# [11] = test system: DMS 273 small cell lung
# [12] = test system: DU-145 prostate
# [13] = test system: EKVX NSCLC
# [14] = test system: HCC-2998 colon
# [15] = test system: HCT-116 colon
# [16] = test system: HCT-15 colon
# [17] = test system: HL-60(TB) leukemia
# [18] = test system: HOP-18 NSCLC
# [19] = test system: HOP-62 NSCLC
# [20] = test system: HS 578T breast
# [21] = test system: HT29 colon
# [22] = test system: IGROV1 ovarian
# [23] = test system: K-562 leukemia
# [24] = test system: KM12 colon
# [25] = test system: KM20L2 colon
# [26] = test system: LOX IMVI melanoma
# [27] = test system: LXFL 529 NSCLC
# [28] = test system: M14 melanoma
# [29] = test system: M19-MEL melanoma
# [30] = test system: MALME-3M melanoma
# [31] = test system: MCF7 breast
# [32] = test system: MDA-MB-231 breast
# [33] = test system: MDA-MB-435
# [34] = test system: MDA-N
# [35] = test system: MOLT-4 leukemia
# [36] = test system: NCI-H226 lung
# [37] = test system: NCI-H23 lung
# [38] = test system: NCI-H460 lung
# [39] = test system: NCI-H522 lung
# [40] = test system: NCI/ADR-RES ovarian
# [41] = test system: OVCAR-3 ovarian
# [42] = test system: OVCAR-4 ovarian
# [43] = test system: OVCAR-5 ovarian
# [44] = test system: OVCAR-8 ovarian
# [45] = test system: PC-3 prostate
# [46] = test system: RPMI-8226 leukemia
# [47] = test system: RXF 393 renal
# [48] = test system: RXF-631 renal
# [49] = test system: SF-268 CNS
# [50] = test system: SF-295 CNS
# [51] = test system: SF-539 CNS
# [52] = test system: SK-MEL-2 melanoma
# [53] = test system: SK-MEL-28 melanoma
# [54] = test system: SK-MEL-5 melanoma
# [55] = test system: SK-OV-3 ovarian
# [56] = test system: SN12C renal
# [57] = test system: SNB-19 CNS
# [58] = test system: SNB-75 CNS
# [59] = test system: SNB-78 CNS
# [60] = test system: SR leukemia
# [61] = test system: SW-620 colon
# [62] = test system: T-47D breast
# [63] = test system: TK-10 renal
# [64] = test system: U251 CNS
# [65] = test system: UACC-257 melanoma
# [66] = test system: UACC-62 melanoma
# [67] = test system: UO-31 renal
# [68] = test system: XF 498 CNS
smiles,measurement,setting,value
C/C1=C/C2OC(=O)C3(C)C2C(CC2(C)OC1=CC2=O)OC3(O)C(C)C (stereo not drawn),TGI,[1],> 69.3 µM
same,TGI,[2],> 100 µM
same,TGI,[3],> 100 µM
same,TGI,[4],> 100 µM
same,TGI,[5],24.9 µM
same,TGI,[6],62 µM
same,TGI,[7],> 73.4 µM
same,TGI,[8],> 73 µM
same,TGI,[9],87.8 µM
same,TGI,[10],29.6 µM
same,TGI,[11],> 100 µM
same,TGI,[12],> 100 µM
same,TGI,[13],> 100 µM
same,TGI,[14],48.8 µM
same,TGI,[15],> 100 µM
same,TGI,[16],> 63.1 µM
same,TGI,[17],54.9 µM
same,TGI,[18],> 100 µM
same,TGI,[19],> 100 µM
same,TGI,[20],> 100 µM
same,TGI,[21],> 66.9 µM
same,TGI,[22],> 84.5 µM
same,TGI,[23],> 100 µM
same,TGI,[24],> 60.3 µM
same,TGI,[25],43.2 µM
same,TGI,[26],> 100 µM
same,TGI,[27],93.1 µM
same,TGI,[28],> 100 µM
same,TGI,[29],> 100 µM
same,TGI,[30],77.8 µM
same,TGI,[31],> 100 µM
same,TGI,[32],> 100 µM
same,TGI,[33],> 100 µM
same,TGI,[34],> 100 µM
same,TGI,[35],> 100 µM
same,TGI,[36],> 78.6 µM
same,TGI,[37],> 54.1 µM
same,TGI,[38],> 100 µM
same,TGI,[39],35.7 µM
same,TGI,[40],> 100 µM
same,TGI,[41],> 64.9 µM
same,TGI,[42],> 55.3 µM
same,TGI,[43],> 79.3 µM
same,TGI,[44],> 62.4 µM
same,TGI,[45],> 100 µM
same,TGI,[46],> 86.1 µM
same,TGI,[47],> 70.5 µM
same,TGI,[48],> 100 µM
same,TGI,[49],> 65.9 µM
same,TGI,[50],> 78.7 µM
same,TGI,[51],> 89.6 µM
same,TGI,[52],> 84.6 µM
same,TGI,[53],> 100 µM
same,TGI,[54],55 µM
same,TGI,[55],> 100 µM
same,TGI,[56],> 71.4 µM
same,TGI,[57],> 74.4 µM
same,TGI,[58],> 100 µM
same,TGI,[59],> 100 µM
same,TGI,[60],65.7 µM
same,TGI,[61],67.4 µM
same,TGI,[62],> 100 µM
same,TGI,[63],> 100 µM
same,TGI,[64],> 54 µM
same,TGI,[65],> 75.1 µM
same,TGI,[66],56.4 µM
same,TGI,[67],> 100 µM
same,TGI,[68],41 µM
